Test results reported in patent US20120291159A1, “Azoline Compounds for Combating Invertebrate Pests” (BASF SE, priority 2009, published 2012).
Structures can show the parent of a compound that is named as a salt.

Experiments:
Assay type in all cases: in vivo
[1] = system: Orchid Thrips (Dichromothrips corbetti); test: Orchid thrips floral-immersion test (B.5); settings: 500 ppm, adult thrips, after 4 days
Protocol: B.5 Orchid Thrips (Dichromothrips corbetti)
Dichromothrips corbetti adults used for bioassay are obtained from a colony maintained continuously under laboratory conditions. […]
Thrips potency of each compound is evaluated by using a floral-immersion technique. Plastic petri dishes are used as test arenas. All petals of individual, intact orchid flowers are dipped into treatment solution and allowed to dry. Treated flowers are placed into individual petri dishes along with 10-15 adult thrips. The petri dishes are then covered with lids. All test arenas are held under continuous light and a temperature of about 28° C. for duration of the assay. After 4 days, the numbers of live thrips are counted on each flower, and along inner walls of each petri dish. The level of thrips mortality is extrapolated from pre-treatment thrips numbers.

[2] = system: Mediterranean Fruitfly (Ceratitis capitata); test: Mediterranean fruitfly microtiter diet test (B.4); settings: 120 h, egg and larval mortality after 5 days, read-out: mortality in comparison with untreated controls
Protocol: B.4 Mediterranean Fruitfly (Ceratitis capitata)
For evaluating control of Mediterranean fruitfly (Ceratitis capitata) the test unit consisted of microtiter plates containing an insect diet and 50-80 C. capitata eggs. The compounds were formulated using a solution containing 75% v/v water and 25% v/v DMSO. Different concentrations of formulated compounds were sprayed onto the insect diet at 5 μl, using a custom built micro atomizer, at two replications. After application, microtiter plates were incubated at about 28±1° C. and about 80±5% relative humidity for 5 days. Egg and larval mortality was then visually assessed.

[3] = system: Vetch Aphid (Megoura viciae); test: Vetch aphid leaf disk microtiter test (B.9); settings: foliar, 120 h, adult aphids on broad bean leaf disks, 5 days, read-out: mortality in comparison with untreated controls
Protocol: B.9 Vetch Aphid (Megoura viciae)
For evaluating control of vetch aphid (Megoura viciae) through contact or systemic means the test unit consisted of 24-well-microtiter plates containing broad bean leaf disks.
The compounds were formulated using a solution containing 75% v/v water and 25% v/v DMSO. Different concentrations of formulated compounds were sprayed onto the leaf disks at 2.5 μl, using a custom built micro atomizer, at two replications.
After application, the leaf disks were air-dried and 5-8 adult aphids placed on the leaf disks inside the microtiter plate wells. The aphids were then allowed to suck on the treated leaf disks and incubated at about 23±1° C. and about 50±5% relative humidity for 5 days. Aphid mortality and fecundity was then visually assessed.

[4] = system: Boll Weevil (Anthonomus grandis); test: Boll weevil microtiter diet test (B.11); settings: 120 h, egg and larval mortality after 5 days, read-out: mortality in comparison with untreated controls
Protocol: B.11 Boll Weevil (Anthonomus grandis)
For evaluating control of boll weevil (Anthonomus grandis) the test unit consisted of 24-well-microtiter plates containing an insect diet and 20-30 A. grandis eggs.
The compounds were formulated using a solution containing 75% v/v water and 25% v/v DMSO. Different concentrations of formulated compounds were sprayed onto the insect diet at 20 μl, using a custom built micro atomizer, at two replications.
After application, microtiter plates were incubated at about 23±1° C. and about 50±5% relative humidity for 5 days. Egg and larval mortality was then visually assessed.

[5] = system: Silverleaf Whitefly (Bemisia argentifoli); test: Silverleaf whitefly cotton plant spray test (B.6); settings: 300 ppm; whitefly adults on sprayed cotton, 3 days after treatment
Description: B.6 Silverleaf Whitefly (Bemisia argentifoli)
(§1) The active compounds were formulated in cyclohexanone as a 10,000 ppm solution supplied in tubes. The tubes were inserted into an automated electrostatic sprayer equipped with an atomizing nozzle and they served as stock solutions for which lower dilutions were made in 50% acetone:50% water (v/v). A nonionic surfactant (Kinetic®) was included in the solution at a volume of 0.01% (v/v).
Cotton plants at the cotyledon stage (one plant per pot) were sprayed by an automated electrostatic plant sprayer equipped with an atomizing spray nozzle. The plants were dried in the sprayer fume hood and then removed from the sprayer. Each pot was placed into a plastic cup and about 10 to 12 whitefly adults (approximately 3-5 days old) were introduced. The insects were collected using an aspirator and a nontoxic Tygon® tubing connected to a barrier pipette tip. The tip, containing the collected insects, was then gently inserted into the soil containing the treated plant, allowing insects to crawl out of the tip to reach the foliage for feeding. Cups were covered with a reusable screened lid. […] Mortality was assessed 3 days after treatment, compared to untreated control plants.

[6] = system: Cowpea Aphid (Aphis craccivora); test: Cowpea aphid spray test on potted cowpea plants (B.2); settings: 100 ppm; sprayed cowpea plants; assessed after 24, 72 and 120 hours
Protocol: If not otherwise specified the test solutions were prepared as follow:
The active compound was dissolved at the desired concentration in a mixture of 1:1 (vol:vol) distilled water:acteon. The test solution was prepared the day it was used and in general at concentrations of […] (wt/vol).
B.2 Cowpea Aphid (Aphis craccivora)
Potted cowpea plants colonized with approximately 100-150 aphids of various stages were sprayed after the pest population has been recorded. Population reduction was assessed after 24, 72, and 120 hours.

[7] = system: Tobacco Budworm (Heliothis virescens); test: Tobacco budworm cotton plant spray test (B.10); settings: 2500 ppm; larvae on sprayed cotton, 4 days after treatment
Protocol: B.10 Tobacco Budworm (Heliothis virescens) I
as §1
Cotton plants were grown 2 plants to a pot and selected for treatment at the cotyledon stage. Test solutions were sprayed onto the foliage by an automated electrostatic plant sprayer equipped with an atomizing spray nozzle. The plants were dried in the sprayer fume hood and then removed from the sprayer. Each pot was placed into perforated plastic bags with a zip closure. About 10 to 11 budworm larvae were placed into the bag and the bags zipped closed. Test plants were maintained in a growth room at about 25° C. and about 20-40% relative humidity for 4 days, avoiding direct exposure to fluorescent light (24 hour photoperiod) to prevent trapping of heat inside the bags. Mortality and reduced feeding were assessed 4 days after treatment, compared to untreated control plants.

SMILES: O=C(NCC(F)(F)F)c1cc(C2=NOC(c3cc(Cl)cc(Cl)c3)(C(F)(F)F)C2)ccn1 (centres unmarked) [compound 2-3]
- mortality in comparison with untreated controls [1]: at least 75%

SMILES: NCc1cccc(C2=NOC(c3cc(Cl)cc(Cl)c3)(C(F)(F)F)C2)c1 (centres unmarked) [compound 3-1, 3-[5-(3,5-dichloro-phenyl)-5-trifluoromethyl-4,5-dihydro-isoxazol-3-yl]-benzylamine hydrochloride]
- mortality at 2500 ppm [2]: ≥ 75%
- mortality at 2500 ppm [3]: ≥ 75%
- mortality at 2500 ppm [4]: ≥ 75%

SMILES: CCC(=O)NCc1cccc(C2=NOC(c3cc(Cl)cc(Cl)c3)(C(F)(F)F)C2)c1 (centres unmarked) [compound 3-2, N-{3-[5-(3,5-dichloro-phenyl)-5-trifluoromethyl-4,5-dihydro-isoxazol-3-yl]-benzyl}-propionamide]
- mortality at 2500 ppm [2]: ≥ 75%
- mortality at 2500 ppm [3]: ≥ 75%
- mortality at 2500 ppm [4]: ≥ 75%

SMILES: CC(=O)NCc1cccc(C2=NOC(c3cc(Cl)cc(Cl)c3)(C(F)(F)F)C2)c1 (centres unmarked) [compound 3-3, N-{3-[5-(3,5-dichloro-phenyl)-5-trifluoromethyl-4,5-dihydro-isoxazol-3-yl]-benzyl}-acetamide]
- mortality at 2500 ppm [2]: ≥ 75%
- mortality at 2500 ppm [3]: ≥ 75%
- mortality at 2500 ppm [4]: ≥ 75%

SMILES: CSCC(=O)NCc1cccc(C2=NOC(c3cc(Cl)cc(Cl)c3)(C(F)(F)F)C2)c1 (centres unmarked) [compound 3-4, N-{3-[5-(3,5-dichloro-phenyl)-5-trifluoromethyl-4,5-dihydro-isoxazol-3-yl]-benzyl}-2-methylsulfanyl-acetamide]
- mortality at 2500 ppm [2]: ≥ 75%

SMILES: CCCC(=O)NCc1cccc(C2=NOC(c3cc(Cl)cc(Cl)c3)(C(F)(F)F)C2)c1 (centres unmarked) [compound 3-5, N-{3-[5-(3,5-dichloro-phenyl)-5-trifluoromethyl-4,5-dihydro-isoxazol-3-yl]-benzyl}-butyramide]
- mortality at 2500 ppm [2]: ≥ 75%
- mortality at 2500 ppm [3]: ≥ 75%
- mortality at 2500 ppm [4]: ≥ 75%

SMILES: CCCC(=O)OCc1cccc(C2=NOC(c3cc(Cl)cc(Cl)c3)(C(F)(F)F)C2)c1 (centres unmarked) [compound 3-9]
- mortality in comparison with untreated controls [5]: at least 75%

SMILES: CN1CCC(Oc2cccc(C3=NOC(c4cc(Cl)cc(Cl)c4)(C(F)(F)F)C3)c2)C1=O (centres unmarked) [compound 5-1]
- mortality in comparison with untreated controls [6]: at least 75%

SMILES: [O-][S+](c1cccc(C2=NOC(c3cc(Cl)cc(Cl)c3)(C(F)(F)F)C2)c1)C(F)(F)F (centres unmarked) [compound 6-2]
- mortality in comparison with untreated controls [7]: at least 75%
